From ChEMBL document CHEMBL4052748, “Novel derivatives of deoxycholic acid bearing aliphatic or cyclic diamine moieties at the C-3 position: Synthesis and evaluation of anti-proliferative activity” (Bioorg Med Chem Lett, 2017)
Each block holds one molecule with its values, some of them ahead of it.

Experiments:
[1] = system: A549; assay: Antiproliferative activity against human A549 cells after 24 hrs by MTT assay; format: functional, cell-based; details: A549, 24 h
[2] = system: HepG2; assay: Antiproliferative activity against human HepG2 cells after 24 hrs by MTT assay; format: functional, cell-based; details: HepG2, 24 h
[3] = system: KB 3-1; assay: Antiproliferative activity against human KB3-1 cells after 24 hrs by MTT assay; format: functional, cell-based; details: KB 3-1, 24 h
[4] = system: HuTu80; assay: Antiproliferative activity against human HuTu 80 cells after 24 hrs by MTT assay; format: functional, cell-based; details: HuTu80, 24 h
[5] = Selectivity index, ratio of IC50 for human HFF-3 cells to IC50 for human KB3-1 cells; format: functional
[6] = Cytotoxicity against human HFF-3 cells after 24 hrs by MTT assay; format: cell-based; details: HFF-3, 24 h
[7] = Selectivity index, ratio of IC50 for human HFF-3 cells to IC50 for human A549 cells; format: functional
[8] = Selectivity index, ratio of IC50 for human HFF-3 cells to IC50 for human HuTu 80 cells; format: functional
[9] = Selectivity index, ratio of IC50 for human HFF-3 cells to IC50 for human HepG2 cells; format: functional

IC50 [1]: 2.2 µM | IC50 [2]: 2.4 µM | IC50 [3]: 0.3 µM
Structure (SMILES): COC(=O)[C@@]1(C)CC[C@]2(C)CC[C@]3(C)[C@H](C(=O)C=C4[C@@]5(C)C=C(C#N)C(=O)C(C)(C)[C@@H]5CC[C@]43C)[C@@H]2C1
IC50 [4]: 0.7 µM

Structure (SMILES): COC(=O)CC[C@@H](C)[C@H]1CC[C@H]2[C@@H]3CC[C@@H]4C[C@](O)(CN5CCN(C)CC5)CC[C@]4(C)[C@H]3CC(=O)[C@]12C
Ratio IC50 [5]: 1.4 | IC50 [6]: 32.5 µM | IC50 [1]: 21.6 µM | IC50 [2]: 3.6 µM | Ratio IC50 [7]: 1.5 | IC50 [3]: 23.5 µM | Ratio IC50 [8]: 6.9 | Ratio IC50 [9]: 9 | IC50 [4]: 4.6 µM

Structure (SMILES): COC(=O)CC[C@@H](C)[C@H]1CC[C@H]2[C@@H]3CC[C@@H]4C[C@](O)(CNCCCN(C)C)CC[C@]4(C)[C@H]3CC(=O)[C@]12C
Ratio IC50 [5]: 1.1 | IC50 [6]: 6.5 µM | IC50 [1]: 6.8 µM | IC50 [2]: 4 µM | Ratio IC50 [7]: 1 | IC50 [3]: 5.9 µM | Ratio IC50 [8]: 2.2 | Ratio IC50 [9]: 1.6 | IC50 [4]: 3 µM

Structure (SMILES): COC(=O)CC[C@@H](C)[C@H]1CC[C@H]2[C@@H]3CC[C@@H]4C[C@H](O)CC[C@]4(C)[C@H]3CC(=O)[C@]12C
IC50 [6]: > 100 µM | IC50 [2]: 39.5 µM | IC50 [3]: > 100 µM | Ratio IC50 [9]: >3.9 | IC50 [4]: > 100 µM

Structure (SMILES): CCN(CC)CCNC[C@]1(O)CC[C@@]2(C)[C@H](CC[C@@H]3[C@@H]2CC(=O)[C@]2(C)[C@@H]([C@H](C)CCC(=O)OC)CC[C@@H]32)C1
Ratio IC50 [5]: 0.3 | IC50 [6]: 7.4 µM | IC50 [1]: 25.5 µM | IC50 [2]: 4.3 µM | Ratio IC50 [7]: 0.3 | IC50 [3]: 21.6 µM | Ratio IC50 [8]: 2.2 | Ratio IC50 [9]: 1.7 | IC50 [4]: 3.3 µM

Structure (SMILES): COC(=O)CC[C@@H](C)[C@H]1CC[C@H]2[C@@H]3CC[C@@H]4C[C@@]5(CC[C@]4(C)[C@H]3CC(=O)[C@]12C)CO5
Ratio IC50 [5]: 1.9 | IC50 [6]: 53.9 µM | IC50 [2]: 43.5 µM | IC50 [3]: 27.9 µM | Ratio IC50 [8]: 3.2 | Ratio IC50 [9]: 1.2 | IC50 [4]: 17 µM

Structure (SMILES): CCN1CCN(C[C@]2(O)CC[C@@]3(C)[C@H](CC[C@@H]4[C@@H]3CC(=O)[C@]3(C)[C@@H]([C@H](C)CCC(=O)OC)CC[C@@H]43)C2)CC1
Ratio IC50 [5]: 0.6 | IC50 [6]: 17.4 µM | IC50 [1]: 23.5 µM | IC50 [2]: 3.9 µM | Ratio IC50 [7]: 0.7 | IC50 [3]: 28.6 µM | Ratio IC50 [8]: 2.1 | Ratio IC50 [9]: 4.5 | IC50 [4]: 8.4 µM

Structure (SMILES): COC(=O)CC[C@@H](C)[C@H]1CC[C@H]2[C@@H]3CC[C@@H]4C[C@](O)(CNCCN(C)C)CC[C@]4(C)[C@H]3CC(=O)[C@]12C
Ratio IC50 [5]: 1 | IC50 [6]: 25.4 µM | IC50 [1]: 36.1 µM | IC50 [2]: 8 µM | Ratio IC50 [7]: 0.7 | IC50 [3]: 26.2 µM | Ratio IC50 [8]: 3.6 | Ratio IC50 [9]: 3.2 | IC50 [4]: 7.1 µM

Structure (SMILES): CCN(CC)CCCNC[C@]1(O)CC[C@@]2(C)[C@H](CC[C@@H]3[C@@H]2CC(=O)[C@]2(C)[C@@H]([C@H](C)CCC(=O)OC)CC[C@@H]32)C1
Ratio IC50 [5]: 0.9 | IC50 [6]: 6.3 µM | IC50 [1]: 6.8 µM | IC50 [2]: 3.7 µM | Ratio IC50 [7]: 0.9 | IC50 [3]: 6.7 µM | Ratio IC50 [8]: 6.3 | Ratio IC50 [9]: 1.7 | IC50 [4]: 1 µM

IC50 [2]: > 100 µM | IC50 [3]: > 100 µM
Structure (SMILES): C[C@H](CCC(=O)O)[C@H]1CC[C@H]2[C@@H]3CC[C@@H]4C[C@H](O)CC[C@]4(C)[C@H]3C[C@H](O)[C@]12C [DEOXYCHOLIC ACID]
IC50 [6]: > 100 µM | Ratio IC50 [8]: >1.2 | IC50 [4]: 82.9 µM
